Data as given in paper PMC3956872 (PLoS ONE, 2014).

Target: T1, TcAAAP069 (Trypanosoma cruzi, UniProt Q4DAV2)
T1 construct: gene Tc00.1047053504069.120; full-length gene in pTREXL, overexpressed in T. cruzi epimastigotes (also p416/pDR196 in S. cerevisiae MG266 gap1 put4); about 10 transmembrane spans; allele TcAAAP229 has a 62-residue N-terminal extension
Assay: cell-based
Details: read-out: % inhibition at 10 mM

T1 sequence (Q4DAV2 entry or part of it): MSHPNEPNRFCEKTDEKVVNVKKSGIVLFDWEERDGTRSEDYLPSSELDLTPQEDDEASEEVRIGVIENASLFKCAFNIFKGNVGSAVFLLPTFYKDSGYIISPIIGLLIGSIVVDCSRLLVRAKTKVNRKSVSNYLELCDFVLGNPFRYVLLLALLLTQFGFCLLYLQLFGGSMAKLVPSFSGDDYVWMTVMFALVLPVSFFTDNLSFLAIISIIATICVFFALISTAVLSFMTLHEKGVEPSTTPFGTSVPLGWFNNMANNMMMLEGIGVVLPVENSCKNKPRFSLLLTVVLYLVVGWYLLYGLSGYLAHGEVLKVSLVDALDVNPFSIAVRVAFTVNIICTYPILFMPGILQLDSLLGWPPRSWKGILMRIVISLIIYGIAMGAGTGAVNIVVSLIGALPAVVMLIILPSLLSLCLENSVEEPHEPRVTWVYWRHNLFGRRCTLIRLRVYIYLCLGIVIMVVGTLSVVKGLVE

Structure (SMILES) | inhibition at 10000 µM [%]
O=C(O)[C@H]1CCCN1 [D-proline] | 76.3
O=C(O)[C@@H]1CSCN1 [L-thiazolidine-4-carboxylic acid] | 44.2
O=C(O)[C@@H]1C[C@@H](O)CN1 [hydroxyproline] | 91.8
